Measurements taken from PMC6848382, “Characterization of the Bioactivity and Mechanism of Bactenecin Derivatives Against Food-Pathogens” (Frontiers in Microbiology, 2019).
No end group written: not given here.

Experiments:
[1] = tested on: Escherichia coli ATCC25922; type: cell-based
Protocol: To evaluate the effect of different physiological conditions on the stability of peptides, we determined the salt stability, thermal stability, and enzymatic stability as described in a previous study ([Dong, 2013]; [Sun et al., 2018]). Escherichia coli ATCC25922 grown in the logarithmic phase (1 × 10^6 CFU/mL) was exposed to each peptide at different salt concentrations (150 mM NaCl, 4.5 mM KCl, 6 μM NH4Cl, 1 mM MgCl2, 8 μM ZnCl2, 2 mM CaCl2, and 4 μM FeCl3). The peptides were treated for 1 h at 100°C to test for thermal stability. The peptides were treated with trypsin, pepsin, papain and protease k at a concentration of 1 mg/mL for 1 h at 37°C to test for enzyme stability. The control group consisted of untreated peptides. The subsequent assay was consistent with the MIC assay.

[2] = tested on: Escherichia coli ATCC25922; type: cell-based; conditions: ATCC25922, 24 h
Protocol: (§1) The antimicrobial activity of each peptide against food-pathogens was characterized by the minimum inhibitory concentration (MIC) ([Ma et al., 2013]). A logarithmic growth-phase culture of bacteria (1 × 10^6 CFU/mL) was mixed with peptide solutions (final concentration ranging from 0 μM to 256 μM) in 96-well plates. After the 96-well plates were incubated for 24 h at 37°C, optical dispersion (OD) was measured using a microplate reader (Bio-Rad, ıHercules, CA, United States) at 630 nm. […] The broth with bacteria cells was used as the negative control, and un-inoculated broth was used as a positive control. The tests were performed in triplicate using three replicates for each experiment.

[3] = tested on: Salmonella pullorum C79-13; type: cell-based; conditions: 24 h
Protocol: as §1

[4] = tested on: Salmonella typhimurium ATCC14028; type: cell-based; conditions: ATCC14028, 24 h
Protocol: as §1

[5] = tested on: Escherichia coli UB1005; type: cell-based; conditions: UB1005, 24 h
Protocol: as §1

[6] = tested on: Staphylococcus aureus ATCC25923; type: cell-based; conditions: ATCC25923, 24 h
Protocol: as §1

[7] = tested on: Staphylococcus aureus CMCC26074; type: cell-based; conditions: CMCC26074, 24 h
Protocol: as §1

[8] = tested on: Salmonella typhimurium C77-31; type: cell-based; conditions: murium C77-31, 24 h
Protocol: as §1

[9] = tested on: 12 typical food-pathogens; conditions: over the 12 food-pathogens of Table 3
Protocol: as §1
The selectivity index (SI), calculated as the ratio of MHC to GM, was used a comparison parameter for the safety and efficacy of peptides.

[10] = tested on: Cronobacter sakazakii ATCC29544; type: cell-based; conditions: ATCC29544, 24 h
Protocol: as §1

[11] = tested on: Bacillus cereus CMCC6303; type: cell-based; conditions: CMCC6303, 24 h
Protocol: as §1

[12] = tested on: EA. hy 926 cells; assay: Cytotoxicity (CCK-8); type: cell-based, human; conditions: CCK-8, 24 h; peptide concentration 128 μM
Protocol: The cytotoxicity of the peptides was tested on the EA. hy 926 cell line by using the Cell Counting Kit-8 (CCK-8, Dojindo, Japan) as described in a previous study ([Sánchez-Gómez et al., 2015]). The EA. Hy 926 cells cultured in the logarithmic growth -phase was then diluted with PBS to a single cell suspension. A 100 μL cell suspension (2 × 10^5 cells) was added to 96-well plates and cultured in an incubator with a 5% CO2 atmosphere at 37°C. The cell culture medium was removed, and the two-fold serial dilutions of peptides prepared using DMEM with 5% FBS were added to the 96-well plates. After 24 h, 100 μL DMEM with 10% CCK-8 was added to the 96-well plates and then cultured for 4 h. The absorbance was measured at 492 nm by using a microplate reader. DMEM served as a positive control and cells mixed with DMEM without peptides as a negative control. Melittin was employed as a control peptide.

[13] = tested on: Listeria monocytogenes CMCC54004; type: cell-based; conditions: CMCC54004, 24 h
Protocol: as §1

[14] = tested on: Salmonella enteric-subspenterica CMCC47020; conditions: 1 × 10^6 CFU/mL, 24 h, 37°C, triplicate
Protocol: as §1

[15] = tested on: Salmonella enteric-subspenterica CMCC50071; conditions: 1 × 10^6 CFU/mL, 24 h, 37°C, triplicate
Protocol: as §1

RRWRIVVIRWRR-NH2 [R2W3W10R11]
MIC, Heat ([1]; ATCC25922, 1 h): 8 µM | MIC, Papain ([1]; ATCC25922, 1 h): 4 µM | MIC, Pepsin ([1]; ATCC25922, 1 h): 32 µM | MIC, Proteinase k ([1]; ATCC25922, 1 h): 128 µM | MIC, CaCl2 ([1]; ATCC25922, 24 h): 2 µM | MIC, Control ([1]; ATCC25922, 24 h): 2 µM | MIC, KCl ([1]; ATCC25922, 24 h): 2 µM | MIC, MgCl2 ([1]; ATCC25922, 24 h): 2 µM | MIC, NH4Cl ([1]; ATCC25922, 24 h): 2 µM | MIC, NaCl ([1]; ATCC25922, 24 h): 4 µM | MIC, Trypsin ([1]; E. coli ATCC25922, peptides treated with trypsin 1 mg/mL, 1 h, 37°C): >256 µM | MIC [2]: 2 µM | MIC [3]: 32 µM | MIC [4]: 64 µM | MIC [5]: 16 µM | MIC [6]: 128 µM | MIC [7]: 128 µM | MIC [8]: 64 µM | GM (geometric mean of MICs) [9]: 30.2 µM | MIC [10]: 64 µM | MIC [11]: 64 µM | EA. hy 926 cell viability [12]: 77% | MIC [13]: 1 µM | MIC [14]: 256 µM | MIC [15]: 8 µM
